Assay results from patent US12629355B2, “Drug inhibitor against migration and invasion of cancer cells and methods of treating against metastasis of cancer cells” (HOWARD UNIVERSITY, priority 2019, dated 2026).

Tested on: pY397-FAK
Assay: pY397-FAK expression, immunofluorescence (FIG. 14)
Type: cell-based
Conditions: MCF7 cells, 96 h, 5 ng/ml TGF-beta
Source text: As to FIGS. 14 and 15, in order to evaluate the effect of a representative compound (SD 29-14) as a drug for inducing functional inactivation of RACK1 on the FAK phosphorylation, the drug was used in testing with breast cancer cells (MCF7, FIG. 14) and with glioblastoma cancer cells (U251, FIG. 15). In this immunofluorescence experiment, the pY397-FAK expressing cells were stained with FITC tagged secondary antibody (green) and RACK1 was stained with TRITC tagged secondary antibody (red). Here 5 ng/ml TGFbeta was used to induce cell migration. […] As discussed above, without the pY397-FAK present, the connection between the ECM and cell interiors will be disrupted which will inhibit the cell's potential to migrate by initiating the cell's adhesion to the ECM.
As to FIGS. 14 and 15, and the methods, the immunofluorescence experiments are essentially same as described with reference to FIG. 9 with a slight modification in the duration of the drug treatment. The cancer cells (MCF7 or U251) were incubated with a drug (SD 29-14) or with DMSO (left panel) for 96 h in the presence of 5 ng/ml TGF-beta. After indicated incubation period, the cells were fixed and stained with antibody as described for FIG. 9 methods.

For `Nn1c(S)nnc1-c1cc(Cl)cc(Cl)c1` [SD 29-14], the “expression of pY397-FAK at the cell protrusions” value was “almost completely inhibited”.
